Test results taken from ChEMBL document CHEMBL1201862, “PubChem BioAssay data set” (2004).
Several values for one entry are separate records, joined by “and”; a condition that tells them apart may be missing. Equal entries are not always repeated.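 Protocol summary: plate cells (96-well), add compound at 5 concentrations, incubate 48 h, interpolate endpoints linearly. The concentration for 50% growth inhibition is given as GI50.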 Activity calls are given as the source filed them. Rule as the data show it: active = GI50 up to about 1.1 µM and inactive = higher.

What was measured:
Assay in all cases: growth of human tumour cells (NCI), 48 h
786-0 = system: 786-0
A498 = system: A498
A549 = system: A549
ACHN = system: ACHN
BT-549 = system: BT-549
CAKI-1 = system: CAKI-1
CCRF-CEM = system: CCRF-CEM
DU-145 = system: DU-145
EKVX = system: EKVX
HCC 2998 = system: HCC 2998
HCT-116 = system: HCT-116
HCT-15 = system: HCT-15
HL-60 = system: HL-60
HOP-62 = system: HOP-62
HOP-92 = system: HOP-92
HT-29 = system: HT-29
Hs-578T = system: Hs-578T
KM12 = system: KM12
LOX IMVI = system: LOX IMVI
M14 = system: M14
MCF7 = system: MCF7
NCI-H226 = system: NCI-H226
NCI-H23 = system: NCI-H23
NCI-H460 = system: NCI-H460
NCI/ADR-RES = system: NCI/ADR-RES
OVCAR-4 = system: OVCAR-4
OVCAR-5 = system: OVCAR-5
OVCAR-8 = system: OVCAR-8
PC-3 = system: PC-3
RXF 393 = system: RXF 393
SF-268 = system: SF-268
SF-539 = system: SF-539
SK-OV-3 = system: SK-OV-3
SN12C = system: SN12C
SNB-75 = system: SNB-75
SW-620 = system: SW-620
T47D = system: T47D
TK-10 = system: TK-10
UACC-62 = system: UACC-62
UO-31 = system: UO-31
COLO 205 = system: COLO 205
IGROV-1 = system: IGROV-1
K562 = system: K562
MDA-MB-231 = system: MDA-MB-231
MDA-MB-435 = system: MDA-MB-435
MOLT-4 = system: MOLT-4
Malme-3M = system: Malme-3M
NCI-H522 = system: NCI-H522
OVCAR-3 = system: OVCAR-3
SF-295 = system: SF-295
SK-MEL-28 = system: SK-MEL-28
SK-MEL-2 = system: SK-MEL-2
SK-MEL-5 = system: SK-MEL-5
SNB-19 = system: SNB-19
SR = system: SR
U-251 = system: U-251
UACC-257 = system: UACC-257

SMILES: COc1ccc(-c2c(C#N)c(O)n(C3OC(COC(C)=O)C(OC(C)=O)C(OC(C)=O)C3OC(C)=O)c(=S)c2C#N)cc1 (stereo not drawn)
- GI50 (786-0): 31.7 µM (inactive) and 34 µM (inactive)
- GI50 (A498): 30.3 µM (inactive) and 32.1 µM (inactive)
- GI50 (A549): > 100 µM (inactive)
- GI50 (ACHN): 48.6 µM (inactive) and 54.8 µM (inactive)
- GI50 (BT-549): 32.7 µM (inactive) and 24.8 µM (inactive)
- GI50 (CAKI-1): 31.4 µM (inactive) and 19.1 µM (inactive)
- GI50 (CCRF-CEM): > 100 µM (inactive) and 67.8 µM (inactive)
- GI50 (DU-145): 84.5 µM (inactive)
- GI50 (EKVX): 25.9 µM (inactive) and 37.3 µM (inactive)
- GI50 (HCC 2998): 26.5 µM (inactive) and 25.1 µM (inactive)
- GI50 (HCT-116): 64 µM (inactive) and 67.3 µM (inactive)
- GI50 (HCT-15): > 100 µM
- GI50 (HL-60): 22.2 µM (inactive) and 24.5 µM (inactive)
- GI50 (HOP-62): 31.6 µM (inactive) and 27 µM (inactive)
- GI50 (HOP-92): 19 µM (inactive) and 17.8 µM (inactive)
- GI50 (HT-29): > 100 µM (inactive)
- GI50 (Hs-578T): 30.7 µM (inactive) and 32.1 µM (inactive)
- GI50 (KM12): 65.9 µM (inactive)
- GI50 (LOX IMVI): 93.1 µM (inactive) and 51.5 µM (inactive)
- GI50 (M14): > 100 µM (inactive)
- GI50 (MCF7): > 100 µM (inactive)
- GI50 (NCI-H226): > 100 µM (inactive) and 72.8 µM (inactive)
- GI50 (NCI-H23): 97.5 µM (inactive) and 79.4 µM (inactive)
- GI50 (NCI-H460): 68.7 µM (inactive) and 37.6 µM (inactive)
- GI50 (NCI/ADR-RES): > 100 µM (inactive)
- GI50 (OVCAR-4): 29.1 µM (inactive) and 43.7 µM (inactive)
- GI50 (OVCAR-5): > 100 µM (inactive)
- GI50 (OVCAR-8): 28.4 µM (inactive) and 36.6 µM (inactive)
- GI50 (PC-3): 44.3 µM (inactive) and 66.5 µM (inactive)
- GI50 (RXF 393): 32.1 µM (inactive) and 26 µM (inactive)
- GI50 (SF-268): 25.1 µM (inactive) and 27.9 µM (inactive)
- GI50 (SF-539): 55.2 µM (inactive) and 36.1 µM (inactive)
- GI50 (SK-OV-3): 33.9 µM (inactive) and 28.6 µM (inactive)
- GI50 (SN12C): 94.8 µM (inactive) and 67 µM (inactive)
- GI50 (SNB-75): 26.5 µM (inactive) and 18.9 µM (inactive)
- GI50 (SW-620): > 100 µM (inactive)
- GI50 (T47D): 21.5 µM (inactive) and 30.3 µM (inactive)
- GI50 (TK-10): 31.6 µM (inactive) and 36.8 µM (inactive)
- GI50 (UACC-62): 26 µM (inactive) and 25.7 µM (inactive)
- GI50 (UO-31): 33.4 µM (inactive) and 26.1 µM (inactive)

SMILES: CN(CCNC(=S)c1cn(C)c2c1ccc1ccccc12)CCNC(=S)c1cn(C)c2c1ccc1ccccc12
- GI50 (786-0): 53.6 µM (inactive)
- GI50 (A549): 64.3 µM (inactive)
- GI50 (ACHN): > 100 µM (inactive)
- GI50 (BT-549): > 100 µM (inactive)
- GI50 (CAKI-1): > 100 µM (inactive)
- GI50 (CCRF-CEM): 17.9 µM (inactive)
- GI50 (COLO 205): > 100 µM (inactive)
- GI50 (DU-145): 48.2 µM (inactive)
- GI50 (EKVX): 67.9 µM (inactive)
- GI50 (HCC 2998): 16.6 µM (inactive)
- GI50 (HCT-116): 24.4 µM (inactive)
- GI50 (HCT-15): > 100 µM
- GI50 (HOP-62): > 100 µM (inactive)
- GI50 (HOP-92): 5.64 µM (inactive)
- GI50 (HT-29): 27.5 µM (inactive)
- GI50 (Hs-578T): 69.2 µM (inactive)
- GI50 (IGROV-1): 29.4 µM (inactive)
- GI50 (K562): 54.8 µM (inactive)
- GI50 (KM12): 37.1 µM (inactive)
- GI50 (LOX IMVI): 18.5 µM (inactive)
- GI50 (MCF7): 33.5 µM (inactive)
- GI50 (MDA-MB-231): 38.7 µM (inactive)
- GI50 (MDA-MB-435): 96.8 µM (inactive)
- GI50 (MOLT-4): 24.7 µM (inactive)
- GI50 (Malme-3M): > 100 µM (inactive)
- GI50 (NCI-H23): 48 µM (inactive)
- GI50 (NCI-H460): 71.8 µM (inactive)
- GI50 (NCI-H522): 51.2 µM (inactive)
- GI50 (NCI/ADR-RES): > 100 µM (inactive)
- GI50 (OVCAR-3): > 100 µM (inactive)
- GI50 (OVCAR-4): 11.3 µM (inactive)
- GI50 (OVCAR-5): > 100 µM (inactive)
- GI50 (OVCAR-8): > 100 µM (inactive)
- GI50 (PC-3): 28.6 µM (inactive)
- GI50 (RXF 393): 2.05 µM (inactive)
- GI50 (SF-268): 74 µM (inactive)
- GI50 (SF-295): 99.3 µM (inactive)
- GI50 (SF-539): 47.6 µM (inactive)
- GI50 (SK-MEL-28): 64.4 µM (inactive)
- GI50 (SK-MEL-2): > 100 µM (inactive)
- GI50 (SK-MEL-5): > 100 µM (inactive)
- GI50 (SK-OV-3): > 100 µM (inactive)
- GI50 (SN12C): 40.9 µM (inactive)
- GI50 (SNB-19): > 100 µM (inactive)
- GI50 (SNB-75): 10.7 µM (inactive)
- GI50 (SR): 49.5 µM (inactive)
- GI50 (SW-620): > 100 µM (inactive)
- GI50 (T47D): 3.74 µM (inactive)
- GI50 (TK-10): > 100 µM (inactive)
- GI50 (U-251): 23.7 µM (inactive)
- GI50 (UACC-257): 46.2 µM (inactive)
- GI50 (UACC-62): > 100 µM (inactive)
- GI50 (UO-31): 32.1 µM (inactive)
